Literature values, collected in patent US11850218B2, “Nutraceutical compositions and methods for dietary alleviation of Polycystic Ovary Syndrome” (Provation Life LLC, priority 2022, dated 2023).

Legend:
[1] = system: cellular sensitivity to insulin
[2] = system: hyperandrogenism
[3] = system: PCOS cases

## O[C@H]1[C@H](O)[C@@H](O)[C@H](O)[C@@H](O)[C@H]1O [myo-inositol]
[1]
  cellular sensitivity to insulin / insulin resistance: increase cellular sensitivity to insulin
[2]
  anti-androgenic effect: significant anti-androgenic effect
[3]
  menstruation / menstrual cyclicity: restoration of normal menstruation

## CC[C@H](C)C(=O)O[C@H]1C[C@@H](C)C=C2C=C[C@H](C)[C@H](CC[C@@H]3C[C@@H](O)CC(=O)O3)[C@H]21 [Monacolin K]
[2]
  anti-androgenic effect: provides an anti-androgenic effect

## [Mg+2] [Magnesium]
[2]
  anti-androgenic effect: show anti-androgenic effects
[2]; supplementation
  production of lutenizing hormone: seems to have a positive effect

## chromium (III) picolinate
[1]
  cellular sensitivity to insulin / insulin resistance: positive effect upon cellular sensitivity to insulin
[2]
  anti-androgenic effect: produces an anti-androgenic effect
[2]; PCOS cases
  free testosterone levels: lowering free testosterone levels

## COc1ccc2cc3[n+](cc2c1OC)CCc1cc2c(cc1-3)OCO2 [Berberine]
[1]
  cellular sensitivity to insulin / insulin resistance: decrease insulin resistance

## [Zn] [Zinc]
[2]
  anti-androgenic effect: show anti-androgenic effects
[2]; supplementation
  production of progesterone: increase production

## COc1cc(/C=C/C(=O)CC(=O)/C=C/c2ccc(O)c(OC)c2)ccc1O [Curcumin]
[1]
  cellular sensitivity to insulin / insulin resistance: increases cellular sensitivity to insulin
